According to US10239843B2 (CANCER RESEARCH TECHNOLOGY LIMITED, priority 2014, dated 2019):
Like-named read-outs stand apart in the source and are kept apart here.

Key:
[1] = biological target: Human Full Length PARG (Homo sapiens (Human), UniProt Q86W56); test: PARG enzyme assay (TR-FRET); assay type: biochemical; settings: read-out: PARG Biochem IC50
[2] = system: PARG in HeLa cell line; test: PARG cell assay (PAR chain immunofluorescence after MMS); assay type: cell-based; settings: HeLa cells, MMS treatment, read-out: PARG Cell IC50
Procedure, shortened: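 Nuclear poly(ADP-ribose) chains in HeLa cells are read by indirect immunofluorescence with a mouse anti-PAR antibody applied overnight at 4° C after fixing and permeabilising. Cells get 1 h of compound, then 50 μg/mL MMS (final) for another hour. PAR persisting at that point reflects PARG inhibition.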

Sequence of Human Full Length PARG (Q86W56 whole entry): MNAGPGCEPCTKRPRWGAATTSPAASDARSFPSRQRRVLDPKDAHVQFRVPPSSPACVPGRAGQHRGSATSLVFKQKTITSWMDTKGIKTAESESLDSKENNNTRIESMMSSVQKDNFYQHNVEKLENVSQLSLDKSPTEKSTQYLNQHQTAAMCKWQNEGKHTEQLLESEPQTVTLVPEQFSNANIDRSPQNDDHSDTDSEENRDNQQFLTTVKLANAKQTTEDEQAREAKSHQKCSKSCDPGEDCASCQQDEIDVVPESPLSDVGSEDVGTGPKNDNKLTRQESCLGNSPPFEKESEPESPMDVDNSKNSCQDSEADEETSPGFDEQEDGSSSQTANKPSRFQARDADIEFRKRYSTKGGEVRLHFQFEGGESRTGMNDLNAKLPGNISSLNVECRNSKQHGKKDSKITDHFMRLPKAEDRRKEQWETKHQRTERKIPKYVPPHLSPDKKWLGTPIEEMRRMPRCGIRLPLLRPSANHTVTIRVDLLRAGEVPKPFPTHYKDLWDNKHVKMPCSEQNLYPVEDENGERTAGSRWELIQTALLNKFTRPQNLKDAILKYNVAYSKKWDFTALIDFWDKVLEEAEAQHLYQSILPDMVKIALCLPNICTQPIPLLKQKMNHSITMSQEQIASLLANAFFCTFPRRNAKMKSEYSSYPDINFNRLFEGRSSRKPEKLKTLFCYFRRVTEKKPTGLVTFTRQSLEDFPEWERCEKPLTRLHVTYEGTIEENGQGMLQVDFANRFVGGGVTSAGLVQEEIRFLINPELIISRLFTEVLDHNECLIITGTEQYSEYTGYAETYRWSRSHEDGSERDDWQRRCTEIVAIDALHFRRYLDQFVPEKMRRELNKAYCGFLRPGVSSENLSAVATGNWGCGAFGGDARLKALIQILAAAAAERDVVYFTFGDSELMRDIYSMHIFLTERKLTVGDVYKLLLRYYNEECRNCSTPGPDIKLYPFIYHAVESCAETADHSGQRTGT

| SMILES | IC50 [1] [nM] | IC50 ([2]; Homo sapiens) [nM] | IC50 [2] [nM] |
| --- | --- | --- | --- |
| Cn1cc(Cn2c(=O)c3cc(S(=O)(=O)NC4(CF)CC4)ccc3n(Cc3cnn(C)n3)c2=O)cn1 [Example 596, N-[1-(Fluoromethyl)cyclopropyl]-3-[(1-methylpyrazol-4-yl)methyl]-1-[(2-methyltriazol-4-yl)methyl]-2,4-dioxo-quinazoline-6-sulfonamide] | 85 | 96 |  |
| CCCn1c(=O)n(Cc2cnn(C)c2)c(=O)c2cc(S(=O)(=O)NC3(CF)CC3)ccc21 [Example 597, N-[1-(Fluoromethyl)cyclopropyl]-3-[(1-methylpyrazol-4-yl)methyl]-2,4-dioxo-1-propyl-quinazoline-6-sulfonamide] | 100 | 86 |  |
| Cn1cc(Cn2c(=O)c3cc(S(=O)(=O)NC4(C)CC4)ccc3n(CC(F)F)c2=O)cn1 [Example 599, 1-(2,2-Difluoroethyl)-N-(1-methylcyclopropyl)-3-[(1-methylpyrazol-4-yl)methyl]-2,4-dioxo-quinazoline-6-sulfonamide] | 263 | 93 |  |
| Cn1cc(Cn2c(=O)c3cc(S(=O)(=O)NC4(CF)CC4)ccc3n(CC(F)F)c2=O)cn1 [Example 600, 1-(2,2-Difluoroethyl)-N-[1-(fluoromethyl)cyclopropyl]-3-[(1-methylpyrazol-4-yl)methyl]-2,4-dioxo-quinazoline-6-sulfonamide] | 127 | 109 |  |
| Cc1nnc(Cn2c(=O)[nH]c3ccc(S(=O)(=O)NC4(CF)CC4)cc3c2=O)s1 [Example 601, N-[1-(Fluoromethyl)cyclopropyl]-3-[(5-methyl-1,3,4-thiadiazol-2-yl)methyl]-2,4-dioxo-1H-quinazoline-6-sulfonamide] | 710 | 13500 |  |
| Cc1cc(Cn2c(=O)c3cc(S(=O)(=O)NC4(CF)CC4)ccc3n(C(F)F)c2=O)on1 [Example 604, 1-(Difluoromethyl)-N-[1-(fluoromethyl)cyclopropyl]-3-[(3-methylisoxazol-5-yl)methyl]-2,4-dioxo-quinazoline-6-sulfonamide] | 788 | 295 |  |
| Cn1cc(Cn2c(=O)c3cc(S(=O)(=O)NC4(CF)CC4)ccc3n(Cc3cocn3)c2=O)cn1 [Example 607, N-[1-(Fluoromethyl)cyclopropyl]-3-[(1-methylpyrazol-4-yl)methyl]-1-(oxazol-4-ylmethyl)-2,4-dioxo-quinazoline-6-sulfonamide] | 63 | 76 |  |
| Cn1cc(Cn2c(=O)c3cc(S(=O)(=O)NC4(CF)CC4)ccc3n(CC3CCCC3)c2=O)cn1 [Example 608, 1-(Cyclopentylmethyl)-N-[1-(fluoromethyl)cyclopropyl]-3-[(1-methylpyrazol-4-yl)methyl]-2,4-dioxo-quinazoline-6-sulfonamide] | 64 | 50 |  |
| Cn1cc(Cn2c(=O)c3cc(S(=O)(=O)NC4(CF)CC4)ccc3n(Cc3ccncc3)c2=O)cn1 [Example 610, N-[1-(Fluoromethyl)cyclopropyl]-3-[(1-methylpyrazol-4-yl)methyl]-2,4-dioxo-1-(4-pyridylmethyl)quinazoline-6-sulfonamide] | 111 | 669 |  |
| CCN(CC)CCn1c(=O)n(Cc2cnn(C)c2)c(=O)c2cc(S(=O)(=O)NC3(CF)CC3)ccc21 [Example 611, 1-[2-(Diethylamino)ethyl]-N-[1-(fluoromethyl)cyclopropyl]-3-[(1-methylpyrazol-4-yl)methyl]-2,4-dioxo-quinazoline-6-sulfonamide] | 113 | 249 |  |
| CC(C)CCn1c(=O)n(Cc2cnn(C)c2)c(=O)c2cc(S(=O)(=O)NC3(CF)CC3)ccc21 [Example 613, N-[1-(Fluoromethyl)cyclopropyl]-1-isopentyl-3-[(1-methylpyrazol-4-yl)methyl]-2,4-dioxo-quinazoline-6-sulfonamide] | 42 | 56 |  |
| Cc1cc(Cn2c(=O)n(Cc3nnc(C)s3)c(=O)c3cc(S(=O)(=O)NC4(C)CC4)ccc32)n(C)n1 [Example 615, 1-[(2,5-Dimethylpyrazol-3-yl)methyl]-N-(1-methylcyclopropyl)-3-[(5-methyl-1,3,4-thiadiazol-2-yl)methyl]-2,4-dioxo-quinazoline-6-sulfonamide] | 64 | 274 |  |
| CCC(=O)Cn1c(=O)n(Cc2cnn(C)c2)c(=O)c2cc(S(=O)(=O)NC3(CF)CC3)ccc21 [Example 620, N-[1-(Fluoromethyl)cyclopropyl]-3-[(1-methylpyrazol-4-yl)methyl]-2,4-dioxo-1-(2-oxobutyl)quinazoline-6-sulfonamide] | 144 | 238 |  |
| Cn1cc(Cn2c(=O)c3cc(S(=O)(=O)NC4(C)CC4)ccc3n(CC(F)(F)F)c2=O)cn1 [Example 621, N-(1-Methylcyclopropyl)-3-[(1-methylpyrazol-4-yl)methyl]-2,4-dioxo-1-(2,2,2-trifluoroethyl)quinazoline-6-sulfonamide] | 257 | 135 |  |

More lines, in order of falling IC50 [1], values ahead:

| IC50 [1] [nM] | IC50 ([2]; Homo sapiens) [nM] | IC50 [2] [nM] | SMILES |
| --- | --- | --- | --- |
| 1470 | 248 |  | Cn1cc(Cn2c(=O)c3cc(S(=O)(=O)NC4(C)CC4)ccc3n(C(F)F)c2=O)cn1 [Example 606, 1-(Difluoromethyl)-N-(1-methylcyclopropyl)-3-[(1-methylpyrazol-4-yl)methyl]-2,4-dioxo-quinazoline-6-sulfonamide] |
| 1370 | 588 |  | Cc1cc(Cn2c(=O)c3cc(S(=O)(=O)NC4(C)CC4)ccc3n(C(F)F)c2=O)on1 [Example 605, 1-(Difluoromethyl)-N-(1-methylcyclopropyl)-3-[(3-methylisoxazol-5-yl)methyl]-2,4-dioxo-quinazoline-6-sulfonamide] |
| 247 |  | 325 | COCCOCCn1c(=O)n(Cc2cnn(C)c2)c(=O)c2cc(S(=O)(=O)NC3(CF)CC3)ccc21 [Example 618, N-[1-(Fluoromethyl)cyclopropyl]-1-[2-(2-methoxyethoxy)ethyl]-3-[(1-methylpyrazol-4-yl)methyl]-2,4-dioxo-quinazoline-6-sulfonamide] |
| 194 | 178 |  | CCOCCn1c(=O)n(Cc2cnn(C)c2)c(=O)c2cc(S(=O)(=O)NC3(CF)CC3)ccc21 [Example 612] |
| 190 | 233 |  | Cn1cc(Cn2c(=O)c3cc(S(=O)(=O)NC4(CF)CC4)ccc3n(CC3CCCO3)c2=O)cn1 (stereo not drawn) [Example 619, N-[1-(Fluoromethyl)cyclopropyl]-3-[(1-methylpyrazol-4-yl)methyl]-2,4-dioxo-1-(tetrahydrofuran-2-ylmethyl)quinazoline-6-sulfonamide] |
| 82 | 240 |  | Cn1cc(Cn2c(=O)c3cc(S(=O)(=O)NC4(CF)CC4)ccc3n(CC3CCOC3)c2=O)cn1 (stereo not drawn) [Example 598, N-[1-(Fluoromethyl)cyclopropyl]-3-[(1-methylpyrazol-4-yl)methyl]-2,4-dioxo-1-(tetrahydrofuran-3-ylmethyl)quinazoline-6-sulfonamide] |
| 51 | 56 |  | CC(C)=CCn1c(=O)n(Cc2cnn(C)c2)c(=O)c2cc(S(=O)(=O)NC3(CF)CC3)ccc21 [Example 609, N-[1-(Fluoromethyl)cyclopropyl]-1-(3-methylbut-2-enyl)-3-[(1-methylpyrazol-4-yl)methyl]-2,4-dioxo-quinazoline-6-sulfonamide] |
